These results are taken from the RepoRT retention time repository.

Where a name gives a salt, the structure may show the parent alone.

This data set can be described thus: HILIC, Merck SeQuant ZIC-HILIC, 25 °C, 0.25 mL/min; A: water + 16 mM ammonium formate; B: acetonitrile + 0.1% formic acid, pH 3; gradient (min/%B) 0/97 2/97 10/70 15/10 17/10 18/97 25/97. The settings on record: stereoisomer not certain.
As to `Nc1nc2c(ncn2C2CC(O)C(COP(=O)(O)OP(=O)(O)OP(=O)(O)O)O2)c(=O)[nH]1` (stereo unspecified) [DGTP], the LC retention time is 15.7 min.

For `CCCCCCCCCC(=O)OCC(COP(=O)([O-])OCC[N+](C)(C)C)OC(=O)CCCCCCCCC` (stereo unspecified) [DIDECANOYL-GLYCEROPHOSPHOCHOLINE], the LC retention time was 10.6 min.

Regarding `OCCNCCO` [DIETHANOLAMINE], the LC retention time was found to be 13.1 min.

Regarding `Nc1nc2c(c(=O)[nH]1)N=C(CNc1ccc(C(=O)NC(CCC(=O)O)C(=O)O)cc1)CN2` (stereo unspecified) [DIHYDROFOLATE], the LC retention time was found to be 12.4 min.

In the case of `O=C1CC(C(=O)O)NC(=O)N1` (stereo unspecified) [DIHYDROOROTATE], the LC retention time worked out at 10.6 min.

In the case of `O=C1CCNC(=O)N1` [DIHYDROURACIL], the LC retention time is 2.13 min.

In the case of `O=C(CO)COP(=O)(O)O` [DIHYDROXYACETONE PHOSPHATE], the LC retention time worked out at 14 min.

Consider `CCCCCCCCCCCCCCCC(=O)OCC(COP(=O)(O)OCCN)OC(=O)CCCCCCCCCCCCCCC` (stereo unspecified) [DIPALMITOYL-PHOSPHOETHANOLAMINE], for which the LC retention time came out at 9.35 min.

Consider `CCCCCCCCCCCCCCCC(=O)OCC(CO)OC(=O)CCCCCCCCCCCCCCC` (stereo unspecified) [DIPALMITOYLGLYCEROL], for which the LC retention time is 1.5 min.

For the compound `NCCc1ccc(O)c(O)c1` [DOPAMINE], the LC retention time was determined as 12.5 min.

In the case of `Cc1cn(C2CC(O)C(COP(=O)(O)OP(=O)(O)OC3OC(CO)C(O)C(O)C3O)O2)c(=O)[nH]c1=O` [DTDP-D-GLUCOSE], the LC retention time is 14.4 min.

For `CC(=O)C1C(=O)C=C(C)OC1=O` (stereo unspecified) [Dehydroacetic acid], the LC retention time is 1.56 min.

Regarding `COC(=O)C(=O)OC` [Dimethyl oxalate], the LC retention time was 2.24 min.

On to `CC12CCC3c4ccc(O)cc4CCC3C1CCC2O` (stereo not drawn) [ESTRADIOL-17ALPHA], for which the LC retention time was 1.7 min.

Consider `NCCOP(=O)(O)O` [ETHANOLAMINE PHOSPHATE], for which the LC retention time was found to be 14.9 min.

As for `CCOC(=O)CCNC(N)=O` [ETHYL 3-UREIDOPROPIONATE], the LC retention time worked out at 2.14 min.

Regarding `Cc1cc2nc3c(=O)[nH]c(=O)nc-3n(CC(O)C(O)C(O)COP(=O)(O)OP(=O)(O)OCC3OC(n4cnc5c(N)ncnc54)C(O)C3O)c2cc1C` (stereo unspecified) [FAD], the LC retention time worked out at 13.8 min.

In the case of `COc1cc(C=CC(=O)O)ccc1O` [FERULATE], the LC retention time was determined as 1.94 min.

For the compound `O=C[O-]` [FORMATE], the LC retention time came out at 2.79 min.

`O=P(O)(O)OC1OC(CO)C(O)C(O)C1O` (stereo unspecified) [GALACTOSE 1-PHOSPHATE]: the LC retention time turned out to be 14.7 min.

Consider `NCCCC(=O)O` [GAMMA-AMINOBUTYRATE], for which the LC retention time was found to be 13.5 min.

On to `O=C(O)C(O)C(O)C(O)C(O)CO` (stereo unspecified) [GLUCONATE], for which the LC retention time was 13.6 min.

In the case of `O=C1OC(CO)C(O)C(O)C1O` (stereo unspecified) [GLUCONOLACTONE], the LC retention time is 14.5 min.

Consider `NC(C(=O)O)C(O)C(O)C(O)CO` (stereo unspecified) [GLUCOSAMINATE], for which the LC retention time was 14.7 min.

As to `NC1C(O)OC(COS(=O)(=O)O)C(O)C1O` (stereo unspecified) [GLUCOSAMINE 6-SULFATE], the LC retention time worked out at 15.5 min.

As to `NC(CCC(=O)O)C(=O)O` (stereo unspecified) [GLUTAMATE], the LC retention time was found to be 14.2 min.

As for `O=C(O)CCCC(=O)O` [GLUTARATE], the LC retention time stood at 2.13 min.

Turning to `O=CC(O)CO` (stereo unspecified) [GLYCERALDEHYDE], the LC retention time was determined as 2.77 min.

As to `O=C(O)C(O)CO` (stereo unspecified) [GLYCERATE], the LC retention time was determined as 8.39 min.

As to `O=P(O)(O)OCC(O)CO` (stereo unspecified) [GLYCEROL 3-PHOSPHATE], the LC retention time turned out to be 14.1 min.

Turning to `CCCCCCCCCCCCCC(=O)OCC(O)CO` (stereo unspecified) [GLYCEROL-MYRISTATE], the LC retention time was found to be 1.64 min.

In the case of `O=C(O)CO` [GLYCOLATE], the LC retention time came to 4 min.

As for `NC(N)=NCC(=O)O` [GUANIDINOACETATE], the LC retention time was found to be 14 min.

With `NC(N)=NC(CC(=O)O)C(=O)O` (stereo unspecified) [GUANIDINOSUCCINATE], the LC retention time is 14.4 min.

As for `Nc1nc2nc[nH]c2c(=O)[nH]1` [GUANINE], the LC retention time was determined as 10.8 min.

`Nc1nc2c(ncn2C2OC(COP(=O)(O)OP(=O)(O)OC3OC(CO)C(O)C(O)C3O)C(O)C2O)c(=O)[nH]1` (stereo unspecified) [GUANOSINE DIPHOSPHATE MANNOSE]: the LC retention time turned out to be 15.2 min.

Take `Nc1nc2c(ncn2C2OC(COP(=O)(O)OP(=O)(O)O)C(O)C2O)c(=O)[nH]1` (stereo unspecified) [GUANOSINE DIPHOSPHATE]: the LC retention time turned out to be 15.4 min.

On to `Nc1nc2c(ncn2C2OC(COP(=O)(O)O)C(O)C2O)c(=O)[nH]1` (stereo unspecified) [GUANOSINE MONOPHOSPHATE], for which the LC retention time came out at 14.7 min.

Regarding `Nc1nc2c(ncn2C2OC(CO)C(O)C2O)c(=O)[nH]1` (stereo unspecified) [GUANOSINE], the LC retention time stood at 11.4 min.

`NCC(=O)NCC(=O)O` [Gly-Gly]: the LC retention time was 14.9 min.

For the compound `[NH3+]CC(=O)N1CCCC1C(=O)[O-]` (stereo unspecified) [Gly-Pro], the LC retention time worked out at 15 min.

For `O=C(O)CNC(=O)c1ccccc1` [HIPPURATE], the LC retention time came out at 2.12 min.

Regarding `NCCc1cnc[nH]1` [HISTAMINE], the LC retention time is 17 min.

With `NC(CO)Cc1cnc[nH]1` (stereo unspecified) [HISTIDINOL], the LC retention time stood at 17 min.

`NC1CCSC1=O` (stereo unspecified) [HOMOCYSTEINE THIOLACTONE]: the LC retention time is 11.8 min.

For `NC(CCS)C(=O)O` (stereo unspecified) [HOMOCYSTEINE], the LC retention time came to 12.4 min.

`NC(CCSSCCC(N)C(=O)O)C(=O)O` (stereo unspecified) [HOMOCYSTINE]: the LC retention time was found to be 15 min.

Turning to `COc1cc(CC(=O)O)ccc1O` [HOMOVANILLATE], the LC retention time worked out at 2.04 min.

Take `Nc1c(O)cccc1C(=O)CC(N)C(=O)O` (stereo unspecified) [HYDROXYKYNURENINE]: the LC retention time was 12 min.

On to `O=C(O)C(O)Cc1ccc(O)cc1` (stereo unspecified) [HYDROXYPHENYLLACTATE], for which the LC retention time was 5.36 min.

On to `O=C(O)C(=O)CO` [HYDROXYPYRUVATE], for which the LC retention time turned out to be 13.3 min.

On to `NCCS(=O)O` [HYPOTAURINE], for which the LC retention time is 13.9 min.

Regarding `O=c1[nH]cnc2nc[nH]c12` [HYPOXANTHINE], the LC retention time turned out to be 8.77 min.

As to `O=C(O)Cc1c[nH]c2ccccc12` [INDOLE-3-ACETATE], the LC retention time stood at 2.06 min.

With `OCCc1c[nH]c2ccccc12` [INDOLE-3-ETHANOL], the LC retention time is 1.82 min.

For the compound `COC(=O)Cc1c[nH]c2ccccc12` [INDOLE-3-METHYL ACETATE], the LC retention time worked out at 1.61 min.

As for `O=C(O)C(=O)Cc1c[nH]c2ccccc12` [INDOLE-3-PYRUVATE], the LC retention time is 1.88 min.

Turning to `O=CCc1c[nH]c2ccccc12` [INDOLEACETALDEHYDE], the LC retention time was 10 min.

As for `O=c1[nH]cnc2c1ncn2C1OC(COP(=O)([O-])OP(=O)([O-])O)C(O)C1O` (stereo unspecified) [INOSINE 5'-DIPHOSPHATE], the LC retention time is 15 min.

As to `O=c1[nH]cnc2c1ncn2C1OC(CO)C(O)C1O` (stereo unspecified) [INOSINE], the LC retention time was 10.3 min.

For `CC(C)C(=O)O` [ISOBUTYRATE], the LC retention time was determined as 2.11 min.

Turning to `CCC(C)C(N)C(=O)O` (stereo unspecified) [ISOLEUCINE], the LC retention time worked out at 11.6 min.

Regarding `C=C(C)CCOP(=O)(O)OP(=O)(O)O` [ISOPENTENYL PYROPHOSPHATE], the LC retention time worked out at 2.11 min.

As for `Cc1cc(=O)oc(C)c1C(=O)O` [Isodehydracetic acid], the LC retention time was 2.33 min.

For `O=C(O)c1cc[n+]([O-])cc1` [Isonicotinic acid N-oxide], the LC retention time was determined as 9.7 min.

As for `CC(C)CC(=O)OC(CC(=O)[O-])C[N+](C)(C)C` [Isovaleryl-L-carnitine], the LC retention time is 10.2 min.

Turning to `O=C(O)c1cc(=O)c2ccccc2[nH]1` [Kynurenic acid], the LC retention time came to 9.58 min.

With `NC(N)=NCCC[C@H](N)C(=O)O` [L-Arginine], the LC retention time stood at 16 min.

Consider `NC(=O)C[C@H](N)C(=O)O` [L-Asparagine], for which the LC retention time is 14.2 min.

`O=C1OC(C(O)CO)C(O)C1O` [L-GULONOLACTONE]: the LC retention time stood at 10.3 min.

For `NC(=O)CC[C@H](N)C(=O)O` [L-Glutamine], the LC retention time stood at 14.1 min.

In the case of `N[C@@H](Cc1cnc[nH]1)C(=O)O` [L-Histidine], the LC retention time is 15.8 min.

Turning to `NCCCC[C@H](N)C(=O)O` [L-Lysine], the LC retention time was 16.1 min.

As for `N[C@@H](Cc1ccccc1)C(=O)O` [L-Phenylalanine], the LC retention time stood at 11.1 min.

With `N[C@@H](CO)C(=O)O` [L-Serine], the LC retention time was determined as 14.2 min.

On to `NC(=O)[C@@H](N)Cc1c[nH]c2ccccc12` [L-TRYPTOPHANAMIDE], for which the LC retention time turned out to be 11.7 min.

As to `C[C@@H](O)[C@H](N)C(=O)O` [L-Threonine], the LC retention time was 13.7 min.

On to `CC(O)C(=O)O` (stereo unspecified) [LACTATE], for which the LC retention time was found to be 2.75 min.

With `NC(=O)CCCCC1CCSS1` (stereo unspecified) [LIPOAMIDE], the LC retention time is 1.79 min.

In the case of `NC(CCCC(N)C(=O)O)C(=O)O` (stereo unspecified) [LL-2-6-DIAMINOHEPTANEDIOATE], the LC retention time was found to be 15.4 min.

Take `Cc1cc2nc3[nH]c(=O)[nH]c(=O)c3nc2cc1C` [LUMICHROME]: the LC retention time amounted to 1.94 min.

With `O=C(O)CC(O)C(=O)O` (stereo unspecified) [MALATE], the LC retention time stood at 8.89 min.

For `NC(=O)C=CC(=O)O` [MALEAMATE], the LC retention time came out at 2.53 min.

As for `O=C([O-])C=CC(=O)[O-]` [MALEATE], the LC retention time came to 2.17 min.

As for `O=C(O)CC(=O)O` [MALONATE], the LC retention time stood at 6.35 min.

As to `O=C([O-])C(O)c1ccccc1` (stereo unspecified) [MANDELATE], the LC retention time came out at 2.08 min.

For the compound `COc1ccc2[nH]cc(CCNC(C)=O)c2c1` [MELATONIN], the LC retention time amounted to 1.92 min.

As to `O=C(O)C(=O)CS` [MERCAPTOPYRUVATE], the LC retention time amounted to 13.8 min.

As for `O=C([O-])C(O)C(O)C(=O)[O-]` (stereo not drawn) [MESO-TARTRATE], the LC retention time amounted to 13.6 min.

As for `CS(=N)(=O)CCC(N)C(=O)O` (stereo unspecified) [METHIONINE SULFOXIMINE], the LC retention time was 14.4 min.

With `COC(=O)CCCN` [METHYL 4-AMINOBUTYRATE-CH2], the LC retention time was 13.4 min.
